Measured values reported in ChEMBL document CHEMBL1201862, “PubChem BioAssay data set” (2004).
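Briefly, cells in 96-well plates were exposed to five compound concentrations for 48 h, and endpoints were estimated by linear interpolation. GI50 = concentration required for 50% inhibition of growth.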 Activity calls are given as the source filed them. Rule as the data show it: active = GI50 up to about 1.1 µM and inactive = higher.

How the values were obtained:
Test in all cases: NCI anticancer screen, dose series, 48 h
DLD-1 = system: DLD-1
DMS-114 = system: DMS-114
HOP-18 = system: HOP-18
KM-20L2 = system: KM-20L2
LXFL 529 = system: LXFL 529
M19-MEL = system: M19-MEL
RXF 631 = system: RXF 631
SNB-78 = system: SNB-78
BT-549 = system: BT-549

Measured: GI50

Cc1cccc(C2=NC(C)(C)C(C)(C)N=C2c2cccc(C)n2)n1
inactive: DLD-1 98.6 µM | DMS-114 30.8 µM | HOP-18 > 100 µM | KM-20L2 84.1 µM | LXFL 529 70.5 µM | M19-MEL > 100 µM | RXF 631 > 100 µM | SNB-78 > 100 µM

COC(=O)C(=O)C(C(=O)C(=O)Nc1cc(Cl)c(Cl)cc1Cl)c1nc2ccc([N+](=O)[O-])cc2nc1O (configuration not stated)
inactive: DMS-114 > 100 µM | HOP-18 8.81 µM | KM-20L2 > 100 µM | LXFL 529 > 100 µM | M19-MEL > 100 µM | RXF 631 > 100 µM | SNB-78 > 100 µM

COC1=C(C(=O)OC(C)(C)C)C23CCCCC2(C(C(=O)OC(C)(C)C)=C(OC)C3C(=O)OC(C)(C)C)C1C(=O)OC(C)(C)C (configuration not stated)
inactive: DLD-1 39.9 µM | DMS-114 9.84 µM | HOP-18 12.5 µM | KM-20L2 16.7 µM | LXFL 529 23.2 µM | M19-MEL 25 µM | RXF 631 8.15 µM | SNB-78 72.9 µM

CCOC(=O)C1N(S(=O)(=O)c2ccc(C)cc2)CCC12C(c1ccc(OC)c(OC)c1)=Nc1ccccc12 (configuration not stated)
inactive: DLD-1 > 100 µM | DMS-114 > 100 µM | HOP-18 > 100 µM | KM-20L2 > 100 µM | LXFL 529 > 100 µM | M19-MEL > 100 µM | RXF 631 > 100 µM | SNB-78 > 100 µM

CCCCCCCCCCCCCP(=O)(O)O
inactive: DLD-1 > 100 µM | DMS-114 > 100 µM | HOP-18 > 100 µM | KM-20L2 > 100 µM | LXFL 529 > 100 µM | M19-MEL > 100 µM | RXF 631 > 100 µM | SNB-78 > 100 µM

CNC(=S)NC(=S)N(C)C
inactive: DLD-1 5.48 µM | DMS-114 64.9 µM | HOP-18 > 100 µM | KM-20L2 > 100 µM | LXFL 529 > 100 µM | RXF 631 > 100 µM | SNB-78 > 100 µM

N#CCCN(CCC#N)c1ccc(C(Sc2ccccc2)C(NC(=O)c2cc([N+](=O)[O-])ccc2Cl)C(=O)Sc2ccccc2)cc1 (configuration not stated)
inactive: DLD-1 2.52 µM | DMS-114 2.37 µM | HOP-18 24 µM | KM-20L2 2.57 µM | LXFL 529 3.69 µM | M19-MEL 5.36 µM | RXF 631 2.03 µM | SNB-78 4.66 µM

CCC(/C(=N\Nc1c(Cl)cc(Cl)cc1Cl)c1ccccc1)n1ccnc1C (configuration not stated)
inactive: DLD-1 4.22 µM | DMS-114 6.58 µM | HOP-18 14.9 µM | KM-20L2 4.61 µM | LXFL 529 11.7 µM | M19-MEL 14.8 µM | RXF 631 9.64 µM | SNB-78 19.1 µM

COc1cccc(N2C(=O)c3c(c4[nH]c5ccccc5c4c4ccc(C(C)(C)C)cc34)C2=O)c1
inactive: DLD-1 > 100 µM | DMS-114 > 100 µM | HOP-18 > 100 µM | KM-20L2 > 100 µM | LXFL 529 > 100 µM | M19-MEL > 100 µM | RXF 631 > 100 µM | SNB-78 > 100 µM

O=C1OCC2C1C1c3ccccc3C(O)c3ccccc3C21 (configuration not stated)
inactive: DLD-1 > 100 µM | DMS-114 > 100 µM | HOP-18 > 100 µM | KM-20L2 > 100 µM | LXFL 529 > 100 µM | M19-MEL > 100 µM | RXF 631 > 100 µM | SNB-78 > 100 µM

CN(C)CC1CC/C(=C\c2ccc3c(c2)OCO3)C1=O (configuration not stated)
inactive: BT-549 11.2 µM | DLD-1 6.84 µM | DMS-114 18.4 µM | HOP-18 15.9 µM | KM-20L2 19.7 µM | LXFL 529 12.6 µM | M19-MEL 16.4 µM | RXF 631 12.7 µM | SNB-78 21.8 µM
